The assay deals with autoimmune antibodies (anti-CCP antibody) in serum samples. Nature of the assay: Sandwich ELISA of patient serum samples on peptide-coated microplates (absorbance at 450 nm). The format is binding, human. Particulars: diluted 200 times; for Average (absorbance) OA: OA patient serum samples (15 subjects); for Average (absorbance) RA: RA patient serum samples (30 subjects), peptide coated at about 10 μg/ml; for Average (absorbance) SLE: SLE patient serum samples (25 subjects); for Average (absorbance) Normal: normal control group serum samples (25 subjects). The procedure: Sandwich enzyme linked immunosorbent assay (ELISA) using the peptides of Table 1 were performed on the samples from 4 test groups. Serum samples of RA patients (30 subjects), OA patients (15 subjects), SLE patients (25 subjects), and control group samples (25 normal subjects) were prepared.
Each of the prepared peptides of Table 1 was diluted with PBS to about 10 μg/ml, added by about 100 μl to a microplate, and then coated at about 4° C. overnight, followed by adding about 200 μl of BSA solution (10 mg/mL) to each well of the peptide coated microplate to block at room temperature for about 1 hour, and washing the microplate with a PBS including about 0.1% of Tween-20 three times to use the microplate it in this assay. The patient samples and normal control group sample were diluted by 200 times and added triplet by about 100 μl to the wells of the peptide-coated microplate. After being cultured at room temperature for about 1 hour, the resulting microplate was washed three times in the same manner as the above-described washing. To detect autoimmune antibodies in the samples, 100 μl of an anti-human IgG antibody solution ([…]) was added to each cell of the microplate and incubated at room temperature for about 1 hour, followed by washing three times in the same manner as the above-described washing. After 100 μl of a TMB substrate solution was added thereto and reacted at room temperature for about 30 minutes, finally 100 μl of a 2M sulfuric acid solution was added as a stop solution to terminate the reaction, followed by absorbance measurement at a wavelength of about 450 nm using a microplate reader.
Autoimmune antibody levels in the blood samples of normal patients and various types of arthritis patients were analyzed by enzyme linked immunosorbent assay (ELISA) using the peptides of SEQ ID NOS.
Autoimmune antibody levels in the blood samples of normal patients and various arthritis patients were analyzed by ELISA using the peptides of SEQ ID NOS.

Positions of bridges follow the written chain, without caps; N, C: chain ends. Non-standard residues stand in square brackets, D forms with d. No end group written: not given here. Cit = NC(=O)NCCC[C@H](N)C(=O)O; Ahx = NCCCCCC(=O)O

Experimental findings from patent US10266568B2, “Cyclic citrullinated peptide, rheumatoid arthritis diagnosis composition including the same, rheumatoid arthritis diagnosis method using the peptide or the composition, and method of screening diagnostic marker for rheumatoid arthritis” (KOREA INSTITUTE OF SCIENCE AND TECHNOLOGY, priority 2015, dated 2019) are described below.

For “RF: rheumatoid factor peptide EGLHNHY (listed as Homo sapiens) [reference compound]”, the “Average (absorbance) OA” value is 0.2791, the “Average (absorbance) RA” value came out at 0.2534, the “Average (absorbance) SLE” value came to 0.3417 and the “Average (absorbance) Normal” value came out at 0.1484.
As for “CCP11A: HCHQESTXGRARGCG; CCP with 11th amino acid serine substituted by alanine (HCHQEST[Cit]GRARGCG; disulfide 2-14)”, the “Average (absorbance) SLE” value is recorded as 0.3321 and the “Average (absorbance) Normal” value came to 0.1125.
Consider “HSH15: HSHQESTXGRSRGSG; CCP with disulfide bond-forming cysteine substituted with serine, X citrulline (HSHQEST[Cit]GRSRGSG)”, for which the “Average (absorbance) OA” value is 0.2277, the “Average (absorbance) RA” value is given as 0.1942, the “Average (absorbance) SLE” value came out at 0.2704 and the “Average (absorbance) Normal” value was found to be 0.1067.
For “HSH17: HSHQESTXGRSRGSGZZ; aminocaproic acid (Z) added to C-terminal of HSH15 (HSHQEST[Cit]GRSRGSG[Ahx][Ahx])”, the “Average (absorbance) Normal” value is given as 0.1412.
For “CCP12P: HCHQESTXGRSPGCG; CCP with 12th amino acid substituted by proline (HCHQEST[Cit]GRSPGCG; disulfide 2-14)”, the “Average (absorbance) OA” value is recorded as 0.2847, the “Average (absorbance) SLE” value stood at 0.3619 and the “Average (absorbance) Normal” value is recorded as 0.1250.
For “ZZH17: ZZHSHQESTXGRSRGSG; aminocaproic acid (Z) added to N-terminal of HSH15 ([Ahx][Ahx]HSHQEST[Cit]GRSRGSG)”, the “Average (absorbance) SLE” value was found to be 0.2738 and the “Average (absorbance) Normal” value is 0.1102.
For the substance “CCP: cyclic citrullinated peptide HCHQESTXGRSRGCG, X citrulline (HCHQEST[Cit]GRSRGCG; disulfide 2-14) [reference compound]”, the “Average (absorbance) OA” value is on record as 0.2314, the “Average (absorbance) RA” value is 0.2522, the “Average (absorbance) SLE” value is 0.2347 and the “Average (absorbance) Normal” value was found to be 0.0874.
On to “CCPPAP: HCHQESTXGPAPGCG; CCP with 10th, 11th, 12th amino acids substituted by proline, alanine, proline (HCHQEST[Cit]GPAPGCG; disulfide 2-14)”, for which the “Average (absorbance) OA” value is on record as 0.2591, the “Average (absorbance) SLE” value is 0.3287 and the “Average (absorbance) Normal” value is recorded as 0.1140.
“ZZH19: ZZHSHQESTXGRSRGSGZZ; aminocaproic acid (Z) added to N- and C-terminals of HSH15 ([Ahx][Ahx]HSHQEST[Cit]GRSRGSG[Ahx][Ahx])”: the “Average (absorbance) Normal” value stood at 0.1609.
On the same count and under the same terms, then “CCP10P: HCHQESTXGPSRGCG; CCP with 10th amino acid arginine substituted by proline (HCHQEST[Cit]GPSRGCG; disulfide 2-14)”, with 0.0994.
